Laboratory results: patent US20240287138A1, “CYCLIC PEPTIDES FOR INHIBITING TNF RECEPTOR 1 ACTIVITY” (Merck Sharp & Dohme LLC, priority 2023, published 2024)
Numbered stars: 1 amine (or outer) side, 2 acyl side, 3 side chain; on linkers, the order of the positions; unused ones are H or OH. Bridge positions count the residues as written; N and C are the ends. Square brackets hold non-standard residues; d marks the D form. Peptide text beside a SMILES is read from it. * marks the point of attachment. Trp(βS-Me,7-OMe) = COc1cccc2c([C@H](C)[C@H](N)C(=O)O)c[nH]c12; Phe(4-SO2NH2) = N[C@@H](Cc1ccc(S(N)(=O)=O)cc1)C(=O)O; Phe(2-F,4-COOH) = N[C@@H](Cc1ccc(C(=O)O)cc1F)C(=O)O; dPro(trans-4-NMe2) = CN(C)[C@@H]1CN[C@@H](C(=O)O)C1; Trp(7-CN) = N#Cc1cccc2c(C[C@H](N)C(=O)O)c[nH]c12; Trp(7-Cl) = N[C@@H](Cc1c[nH]c2c(Cl)cccc12)C(=O)O; Phe(3-CONH2) = NC(=O)c1cccc(C[C@H](N)C(=O)O)c1; Phe(4-CONH2) = NC(=O)c1ccc(C[C@H](N)C(=O)O)cc1; Phe(4-COOH) = N[C@@H](Cc1ccc(C(=O)O)cc1)C(=O)O; Trp(7-aza) = N[C@@H](Cc1c[nH]c2ncccc12)C(=O)O; X3 = C[C@H](c1ccncc1)[C@H](N[*:1])C(=O)[*:2]; dPro(trans-4-F) = O=C(O)[C@H]1C[C@H](F)CN1; Pip(5R-OH) = O=C(O)[C@@H]1CC[C@@H](O)CN1; X1 = O=C([C@@H]1CC[C@H](N[*:1])C1)[*:2]; Gly(Nα-CH2CH2CONH2) = NC(=O)CCNCC(=O)O; X31 = O=C(CN(CCc1nnco1)[*:1])[*:2]; Pip(4-aza) = O=C(O)[C@@H]1CNCCN1; 4Pal = N[C@@H](Cc1ccncc1)C(=O)O; NMeE = CN[C@@H](CCC(=O)O)C(=O)O; dHyp = O=C(O)[C@H]1C[C@H](O)CN1; aThr = C[C@H](O)[C@H](N)C(=O)O; Ahp(2) = CCCCC[C@H](N)C(=O)O; αMeS = C[C@](N)(CO)C(=O)O; Carboxymethyl = O=C(O)C*; Nle = CCCC[C@H](N)C(=O)O; Sar = CNCC(=O)O

Experiments:
[1] = molecular target: T1, human soluble TNFR1 (sTNFR1) (Homo sapiens, UniProt P19438); assay: Human sTNFR1-peptide displacement assay (LanthaScreen Eu TR-FRET binding assay)
T1 construct: made in house; host or cells: Sf21 (baculovirus)
T1 sequence (P19438 with tags, fused parts or gaps): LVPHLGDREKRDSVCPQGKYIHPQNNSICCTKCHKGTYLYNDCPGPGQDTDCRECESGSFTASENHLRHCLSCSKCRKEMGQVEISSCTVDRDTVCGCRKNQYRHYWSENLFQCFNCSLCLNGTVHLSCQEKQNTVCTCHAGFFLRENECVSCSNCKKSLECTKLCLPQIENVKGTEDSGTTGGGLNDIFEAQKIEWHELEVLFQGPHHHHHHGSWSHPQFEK
In short: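 Readout is the 665/615 nm TR-FRET ratio (Eu anti-His donor, streptavidin-Alexa647 acceptor), normalized to DMSO and saturating displacer, fit by Morrison-based five-parameter logistic for Kd^app. His-tagged sTNFR1 (1-211) prebound to 100 nM biotinylated peptide SEQ ID NO.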

[2] = molecular target: T2, human TNFR1 extracellular domain (ECD) protein (Homo sapiens, UniProt P19438); assay: SPR binding affinity to captured human TNFR1 ECD
T2 construct: HRV 3C protease cleavage site (C); 6His (C, cleaved yes); made in house; host or cells: Sf21 insect cells (baculovirus), secreted
T2 sequence (P19438 30-211): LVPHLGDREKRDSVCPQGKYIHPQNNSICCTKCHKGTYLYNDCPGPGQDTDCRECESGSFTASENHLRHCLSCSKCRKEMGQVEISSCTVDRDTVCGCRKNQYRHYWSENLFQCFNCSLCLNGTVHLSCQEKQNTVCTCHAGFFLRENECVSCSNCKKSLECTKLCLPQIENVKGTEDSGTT
In short: (§1)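 Insect-cell human receptor ECDs, enzymatically biotinylated, immobilized via streptavidin capture chip. Peptide binding and dissociation measured in RU in pH 7.4 HEPES buffer containing 2% DMSO; chip regenerated per analyte. Rate constants give affinity.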

[3] = molecular target: T3, human TNFR2 ECD protein (Homo sapiens, UniProt P20333); assay: SPR off-target binding (selectivity) to human TNFR2 ECD
T3 construct: HRV 3C protease cleavage site (C); 6His (C, cleaved yes); made in house; host or cells: Sf21 insect cells (baculovirus), secreted
T3 sequence (P20333 23-257): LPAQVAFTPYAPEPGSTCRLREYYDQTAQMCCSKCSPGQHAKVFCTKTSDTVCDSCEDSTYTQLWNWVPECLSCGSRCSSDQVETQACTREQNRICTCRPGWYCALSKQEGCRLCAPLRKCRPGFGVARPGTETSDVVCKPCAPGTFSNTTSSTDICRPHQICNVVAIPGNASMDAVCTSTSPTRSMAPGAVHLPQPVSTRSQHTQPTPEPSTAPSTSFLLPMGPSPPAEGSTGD
In short: as §1

SMILES | Kd [1] [nM] | Kd [2] [nM] | Kd [3] [nM] | IC50 [1] [nM]
CCCC[C@@H]1NC(=O)[C@@H]2CC[C@@H](C2)NC(=O)[C@H]([C@@H](C)c2c[nH]c3c(OC)cccc23)NC(=O)CN(C)C(=O)[C@H](Cc2ccc(C(N)=O)cc2)NC(=O)[C@H](Cc2ccc(C(N)=O)cc2)NC(=O)[C@](C)(CO)NC(=O)[C@H](Cc2c[nH]c3c(C#N)cccc23)NC(=O)[C@H](Cc2ccc(C(=O)O)cc2)NC(=O)[C@H](CC(N)=O)NC(=O)[C@H]2C[C@H](F)CN2C(=O)[C@H](Cc2c[nH]c3ccccc23)NC(=O)[C@@H]2CC[C@@H](O)CN2C(=O)[C@H](Cc2ccncc2)NC1=O [SEQ ID NO. 114] (cyclo([4Pal][Pip(5R-OH)]W[dPro(trans-4-F)]N[Phe(4-COOH)][Trp(7-CN)][αMeS][Phe(4-CONH2)][Phe(4-CONH2)][Sar][Trp(βS-Me,7-OMe)][X1][Nle])) | 0.02 | 0.02 | > 1000 | –
CCCC[C@@H]1NC(=O)[C@@H]2CC[C@@H](C2)NC(=O)[C@H]([C@@H](C)c2c[nH]c3c(OC)cccc23)NC(=O)CN(C)C(=O)[C@H](Cc2ccc(C(=O)O)cc2)NC(=O)[C@H](Cc2ccc(C(N)=O)cc2)NC(=O)[C@](C)(CO)NC(=O)[C@H](Cc2c[nH]c3c(C#N)cccc23)NC(=O)[C@H](Cc2ccncc2)NC(=O)[C@H](CC(N)=O)NC(=O)CN(CCc2nnco2)C(=O)[C@H](Cc2c[nH]c3ncccc23)NC(=O)[C@@H]2CC[C@@H](O)CN2C(=O)[C@H](Cc2ccncc2)NC1=O [SEQ ID NO. 121] (cyclo([4Pal][Trp(7-CN)][αMeS][Phe(4-CONH2)][Phe(4-COOH)][Sar][Trp(βS-Me,7-OMe)][X1][Nle][4Pal][Pip(5R-OH)][Trp(7-aza)][X31]N)) | 0.07 | 0.02 | > 1000 | –
CCCC[C@@H]1NC(=O)[C@@H]2CC[C@@H](C2)NC(=O)[C@H]([C@@H](C)c2c[nH]c3c(OC)cccc23)NC(=O)CN(C)C(=O)[C@H](Cc2ccc(C(N)=O)cc2)NC(=O)[C@H](Cc2ccc(C(N)=O)cc2)NC(=O)[C@](C)(CO)NC(=O)[C@H](Cc2c[nH]c3c(C#N)cccc23)NC(=O)[C@H](Cc2ccc(C(=O)O)cc2)NC(=O)[C@H]([C@H](C)O)NC(=O)[C@H]2C[C@H](O)CN2C(=O)[C@H](Cc2c[nH]c3ncccc23)NC(=O)[C@@H]2CC[C@@H](O)CN2C(=O)[C@H](Cc2ccncc2)NC1=O [SEQ ID NO. 122] (cyclo([4Pal][Pip(5R-OH)][Trp(7-aza)][dHyp][aThr][Phe(4-COOH)][Trp(7-CN)][αMeS][Phe(4-CONH2)][Phe(4-CONH2)][Sar][Trp(βS-Me,7-OMe)][X1][Nle])) | 0.08 | 0.04 | > 1000 | –
CCCCC[C@@H]1NC(=O)[C@@H]2CC[C@@H](C2)NC(=O)[C@H]([C@@H](C)c2c[nH]c3c(OC)cccc23)NC(=O)CN(C)C(=O)[C@H](Cc2cccc(C(N)=O)c2)NC(=O)[C@H](Cc2ccc(C(N)=O)cc2)NC(=O)[C@](C)(CO)NC(=O)[C@H](Cc2c[nH]c3c(C#N)cccc23)NC(=O)[C@H](Cc2ccc(C(=O)O)cc2)NC(=O)[C@H](CC(N)=O)NC(=O)[C@H]2C[C@H](N(C)C)CN2C(=O)[C@H](Cc2c[nH]c3ccccc23)NC(=O)[C@@H]2CC[C@@H](O)CN2C(=O)[C@H](Cc2ccncc2)NC1=O [SEQ ID NO. 128] (cyclo([4Pal][Pip(5R-OH)]W[dPro(trans-4-NMe2)]N[Phe(4-COOH)][Trp(7-CN)][αMeS][Phe(4-CONH2)][Phe(3-CONH2)][Sar][Trp(βS-Me,7-OMe)][X1][Ahp(2)])) | 0.09 | 0.02 | > 1000 | –
CCCC[C@@H]1NC(=O)[C@@H]2CC[C@@H](C2)NC(=O)[C@H]([C@@H](C)c2c[nH]c3c(OC)cccc23)NC(=O)CN(C)C(=O)[C@H](Cc2ccc(C(=O)O)cc2)NC(=O)[C@H](Cc2ccc(C(N)=O)cc2)NC(=O)[C@](C)(CO)NC(=O)[C@H](Cc2c[nH]c3c(C#N)cccc23)NC(=O)[C@H](Cc2ccc(C(=O)O)cc2)NC(=O)[C@H](CC(N)=O)NC(=O)CN(CCC(N)=O)C(=O)[C@H](Cc2c[nH]c3ccccc23)NC(=O)[C@@H]2CC[C@@H](O)CN2C(=O)[C@H](Cc2ccncc2)NC1=O [SEQ ID NO. 130] (cyclo([4Pal][Pip(5R-OH)]W[Gly(Nα-CH2CH2CONH2)]N[Phe(4-COOH)][Trp(7-CN)][αMeS][Phe(4-CONH2)][Phe(4-COOH)][Sar][Trp(βS-Me,7-OMe)][X1][Nle])) | 0.01 | 0.06 | > 1000 | –
CCCC[C@@H]1NC(=O)[C@@H]2CC[C@@H](C2)NC(=O)[C@H]([C@@H](C)c2c[nH]c3c(OC)cccc23)NC(=O)CN(C)C(=O)[C@H](Cc2ccc(C(=O)O)cc2F)NC(=O)[C@H](Cc2ccc(S(N)(=O)=O)cc2)NC(=O)[C@](C)(CO)NC(=O)[C@H](Cc2c[nH]c3c(C#N)cccc23)NC(=O)[C@H](Cc2ccc(C(=O)O)cc2F)NC(=O)[C@H](CC(N)=O)NC(=O)[C@H]2C[C@H](OCC(=O)O)CN2C(=O)[C@H](Cc2c[nH]c3ncccc23)NC(=O)[C@@H]2CC[C@@H](O)CN2C(=O)[C@H](Cc2ccncc2)NC1=O [SEQ ID NO. 134] (cyclo([4Pal][Pip(5R-OH)][Trp(7-aza)][dHyp](Carboxymethyl)N[Phe(2-F,4-COOH)][Trp(7-CN)][αMeS][Phe(4-SO2NH2)][Phe(2-F,4-COOH)][Sar][Trp(βS-Me,7-OMe)][X1][Nle])) | 0.06 | 0.05 | > 1000 | –
CCCCC[C@@H]1NC(=O)[C@@H]2CC[C@@H](C2)NC(=O)[C@H]([C@@H](C)c2c[nH]c3c(OC)cccc23)NC(=O)CN(C)C(=O)[C@H](Cc2ccc(C(N)=O)cc2)NC(=O)[C@H](Cc2ccc(C(N)=O)cc2)NC(=O)[C@](C)(CO)NC(=O)[C@H](Cc2c[nH]c3c(C#N)cccc23)NC(=O)[C@H](Cc2ccc(C(=O)O)cc2)NC(=O)[C@H](CC(N)=O)NC(=O)[C@H]2C[C@H](OCC(=O)O)CN2C(=O)[C@H](Cc2c[nH]c3ccccc23)NC(=O)[C@@H]2CNCCN2C(=O)[C@H](Cc2ccncc2)NC1=O [SEQ ID NO. 140] (cyclo([4Pal][Pip(4-aza)]W[dHyp](Carboxymethyl)N[Phe(4-COOH)][Trp(7-CN)][αMeS][Phe(4-CONH2)][Phe(4-CONH2)][Sar][Trp(βS-Me,7-OMe)][X1][Ahp(2)])) | 0.06 | 0.05 | > 1000 | –
CCCC[C@@H]1NC(=O)[C@@H]2CC[C@@H](C2)NC(=O)[C@H]([C@@H](C)c2c[nH]c3c(OC)cccc23)NC(=O)CN(C)C(=O)[C@H](Cc2ccc(O)cc2)NC(=O)[C@H](Cc2ccc(C(=O)O)cc2)NC(=O)[C@](C)(CO)NC(=O)[C@H](Cc2c[nH]c3c(Cl)cccc23)NC(=O)[C@H](Cc2ccncc2)NC(=O)[C@H](CC(N)=O)NC(=O)CN(C)C(=O)[C@H](Cc2c[nH]c3ccccc23)NC(=O)[C@@H]2CNCCN2C(=O)[C@H](Cc2ccncc2)NC1=O [SEQ ID NO. 141] (cyclo([4Pal][Trp(7-Cl)][αMeS][Phe(4-COOH)]Y[Sar][Trp(βS-Me,7-OMe)][X1][Nle][4Pal][Pip(4-aza)]W[Sar]N)) | 0.17 | 0.06 | > 1000 | –
CCCC[C@@H]1NC(=O)CSC[C@@H](C(N)=O)NC(=O)[C@H]([C@@H](C)c2c[nH]c3c(OC)cccc23)NC(=O)CN(C)C(=O)[C@H](Cc2ccc(O)cc2)NC(=O)[C@H](Cc2ccc(C(=O)O)cc2)NC(=O)[C@](C)(CO)NC(=O)[C@H](Cc2c[nH]c3c(Cl)cccc23)NC(=O)[C@H](Cc2ccncc2)NC(=O)[C@H](CC(N)=O)NC(=O)[C@H](CCC(=O)O)N(C)C(=O)[C@H](Cc2c[nH]c3ncccc23)NC(=O)[C@H](CO)NC(=O)[C@H]([C@H](C)c2ccncc2)NC1=O [SEQ ID NO. 143] ({CH2CO}-[Nle][X3]S[Trp(7-aza)][NMeE]N[4Pal][Trp(7-Cl)][αMeS][Phe(4-COOH)]Y[Sar][Trp(βS-Me,7-OMe)]C-NH2; thioether N-14) | 0.21 | 0.05 | > 1000 | 0.4
